In the supplement of paper PMC10307832:

Legend:
Test in all cases: relative viability (nuclei count vs DMSO), 5 days (fraction); higher = more cells survive
Seliciclib + Luminespib = compound: CC[C@H](CO)Nc1nc(NCc2ccccc2)c2ncn(C(C)C)c2n1 [Seliciclib] + CCNC(=O)c1noc(-c2cc(C(C)C)c(O)cc2O)c1-c1ccc(CN2CCOCC2)cc1 [Luminespib] (partner 0.01 µM)
In short: (§1)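 Values are medians from duplicate plates. Each reflects relative viability, defined as the nuclei count of treated wells over that of vehicle wells. Lung cancer cell lines in 1536-well plates were pin-tool dosed one day after seeding with one drug alone or with a fixed anchor-drug dose plus five library-drug doses (not always all listed) in √10 steps, then fixed, stained and imaged at 4× after 5 days.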

Seliciclib + Foretinib = compound: CC[C@H](CO)Nc1nc(NCc2ccccc2)c2ncn(C(C)C)c2n1 [Seliciclib] + COc1cc2c(Oc3ccc(NC(=O)C4(C(=O)Nc5ccc(F)cc5)CC4)cc3F)ccnc2cc1OCCCN1CCOCC1 [Foretinib] (partner 0.25 µM)
In short: as §1

Seliciclib + Tozasertib = compound: CC[C@H](CO)Nc1nc(NCc2ccccc2)c2ncn(C(C)C)c2n1 [Seliciclib] + Cc1cc(Nc2cc(N3CCN(C)CC3)nc(Sc3ccc(NC(=O)C4CC4)cc3)n2)n[nH]1 [Tozasertib] (partner 0.1 µM)
In short: as §1

Seliciclib + AZD7762 = compound: CC[C@H](CO)Nc1nc(NCc2ccccc2)c2ncn(C(C)C)c2n1 [Seliciclib] + NC(=O)Nc1cc(-c2cccc(F)c2)sc1C(=O)N[C@H]1CCCNC1 [AZD7762] (partner 0.2 µM)
In short: as §1

Cell Line | relative viability (Seliciclib + Luminespib; first compound 0.08 µM) | relative viability (Seliciclib + Luminespib; first compound 0.253 µM) | relative viability (Seliciclib + Luminespib; first compound 0.8 µM) | relative viability (Seliciclib + Luminespib; first compound 2.53 µM) | relative viability (Seliciclib + Luminespib; first compound 8 µM) | relative viability (Seliciclib + Foretinib; first compound 0.08 µM) | relative viability (Seliciclib + Foretinib; first compound 0.253 µM) | relative viability (Seliciclib + Foretinib; first compound 0.8 µM) | relative viability (Seliciclib + Foretinib; first compound 8 µM) | relative viability (Seliciclib + Tozasertib; first compound 0.08 µM) | relative viability (Seliciclib + Tozasertib; first compound 0.253 µM) | relative viability (Seliciclib + Tozasertib; first compound 0.8 µM) | relative viability (Seliciclib + Tozasertib; first compound 2.53 µM) | relative viability (Seliciclib + Tozasertib; first compound 8 µM) | relative viability (Seliciclib + AZD7762; first compound 0.08 µM) | relative viability (Seliciclib + AZD7762; first compound 0.253 µM) | relative viability (Seliciclib + AZD7762; first compound 0.8 µM) | relative viability (Seliciclib + AZD7762; first compound 2.53 µM) | relative viability (Seliciclib + AZD7762; first compound 8 µM) | relative viability (Seliciclib + Foretinib; first compound 2.53 µM)
201T | 1.02 | 1.1 | 0.976 | 0.999 | 1.03 | 0.915 | 1.13 | 1.07 | 1.04 | 0.948 | 0.959 | 0.893 | 0.964 | 0.745 | 0.578 | 0.534 | 0.69 | 0.622 | 0.734 | 
A549 |  |  |  |  |  | 0.919 | 0.985 | 0.895 | 0.775 |  |  |  |  |  |  |  |  |  |  | 0.966
A-427 | 0.905 | 0.744 | 0.926 | 0.873 | 0.902 | 1.06 | 1.11 | 0.944 | 1.17 | 0.245 | 0.202 | 0.187 | 0.2 | 0.192 | 0.763 | 0.912 | 0.853 | 1.13 | 0.998 | 1.28
ABC-1 | 0.447 | 0.753 | 0.478 | 0.378 | 0.396 | 1.04 | 0.987 | 1.17 | 1.2 | 0.149 | 0.131 | 0.189 | 0.186 | 0.207 | 0.944 | 0.764 | 0.782 | 0.719 | 0.637 | 1.02
BEN | 0.344 | 0.439 | 0.662 | 0.259 | 0.251 | 0.615 | 0.576 | 0.746 | 0.592 | 0.451 | 0.481 | 0.585 | 0.502 | 0.468 | 0.808 | 0.584 | 0.694 | 0.672 | 0.61 | 0.621
CAL-12T | 0.351 | 0.411 | 0.363 | 0.388 | 0.313 | 1.16 | 1.48 | 1.26 | 0.731 | 0.297 | 0.313 | 0.294 | 0.247 | 0.234 | 0.509 | 0.772 | 0.71 | 0.707 | 0.729 | 1.21
COR-L23 | 0.658 | 0.67 | 0.579 | 0.871 | 0.556 | 0.928 | 1.22 | 0.981 | 0.738 | 0.224 | 0.234 | 0.187 | 0.164 | 0.154 |  |  |  |  |  | 0.99
COR-L 105 | 1.07 | 0.428 | 0.817 | 0.859 | 0.532 | 1.11 | 0.8 | 1.02 | 1.02 | 0.423 | 0.321 | 0.366 | 0.346 | 0.436 |  |  |  |  |  | 1.18
Calu-6 |  |  |  |  |  | 0.847 | 0.686 | 0.945 | 0.733 |  |  |  |  |  |  |  |  |  |  | 0.892
ChaGo-K-1 | 0.587 | 0.362 | 0.711 | 0.536 | 0.603 | 0.877 | 0.862 | 0.892 | 0.823 | 0.241 | 0.225 | 0.213 | 0.222 | 0.238 | 0.875 | 0.511 | 0.895 | 0.918 | 0.892 | 0.979
